# Assay results reported in patent US20020164721A1, “Design of a polyepitopic construct for the induction of HLA-A2.1 restricted HIV 1 specific CTL responses using HHD mice” (priority 1999, published 2002).
# “And” between values parts separate entries of the source, which are not always exact repeats. Identical values can stand only once. “Also recorded” adds a separate entry of the source. Like-named read-outs stand apart in the source and are kept apart here.
# Assays:
# [1] = test system: peptide-pulsed HHD-transfected RMAS cells; format: in vivo, HHD mice; settings: for classification as immunogen: by number of responder mice and strength of responses, peptide in IFA; for Responder/tested mice: 100 μg peptide s.c. in IFA
# [2] = test system: peptide-pulsed HHD-transfected RMAS cells; format: in vivo, HHD mice; settings: with helper peptide; for Responder/tested mice: 50 μg CD8 + 140 μg HBV core T13L in IFA
# [3] = test system: HHD-transfected RMA-S cells loaded with variant peptides; test: Cross-recognition of the main HIV 1 natural variants by induced CTL; format: in vivo, HHD mice; settings: CTL induced by the immunizing peptide; FIG. 4
# Description: Therefore, we tested, in the four latter cases, whether the elicited CTL responses by the selected wild-type or tyrosine substituted immunizing peptides could cross-recognize natural variants of a significant representation among HIV 1 isolates.
# Cytolytic activity was evaluated against peptide-loaded HHD-transfected RMA-S cells using Inf.m.G9L peptide-loaded cells as a negative control.
# HLA-A2.1 molecules [4] = biological target: T1, HLA-A2.1 molecules (Homo sapiens, UniProt P04439, D140Y/D185E/D98H/E176V/E277Q/G131W/G231S/I119V/I121R/I166T/I218V/L300P/L318F/N151K/N90K/P208A/P217A/Q86G/Q94H/R138H/R169H/T345S); format: binding; settings: wild-type HIV 1 peptides; T2 cells, 37° C., brefeldine A
# T1 construct: Using TAP-deficient, HLA-A2.1^+ T2 cells, we evaluated these parameters in an immunofluorescence assay; endogenous in cells; host or cells: T2 cells (TAP-deficient, HLA-A2.1+)
# HLA-A2.1 molecules [5] = biological target: T1, HLA-A2.1 molecules; format: binding
# [6] = test system: HHD-transfected RMAS cells loaded with relevant peptide; test: CTL response of HHD mice immunized with monoepitopic pCMV-B10 DNA; format: in vivo; settings: for lysis in % (highest specific lysis): pCMV-B10 DNA encoding the epitope, individual mice 1-6; for CTL responses (in words): recombinant pCMV-B10-DNA, all animals tested
# [7] = test system: HHD-transfected RMA-S cells loaded with relevant peptide; test: CTL response of A2A2Kb mice injected s.c. with tumor epitopic peptide in IFA (51Cr-release assay); format: in vivo; settings: responder = at least 10% specific lysis
# [8] = test system: HHD-transfected RMAS cells loaded with relevant peptide; test: CTL response of HHD mice immunized with recombinant Ty-VLP; format: in vivo; settings: for lysis in % (highest specific lysis): recombinant Ty-VLP carrying the epitope, individual mice 1-6; for CTL responses (in words): recombinant Ty-VLP, all animals tested
# [9] = test system: HHD-transfected RMA-S target cells loaded with relevant peptide; test: CTL response of HHD mice co-immunized in IFA with tumor peptide and HBVc.128 helper peptide; format: in vivo; settings: for R/T (responder versus tested mice): 50 μg CD8 peptide + 140 μg HBVc.128 helper in IFA; for CTL response with helper peptide (in words): co-injected with HBVc.128 helper, compared with peptide alone
# [10] = test system: HHD-transfected RMA-S cells loaded with relevant peptide; test: CTL response of HHD mice injected s.c. with tumor epitopic peptide in IFA (51Cr-release assay); format: in vivo; settings: for hierarchy of CTL inducers: peptide alone in IFA, by number of responding mice and level of specific lysis; for R/T (responder versus tested mice): peptide s.c. in IFA, no helper, responder = at least 10% specific lysis
# [11] = test system: peptide-loaded HHD-transfected RMA-S cells and HHD-transfected HeLa cells expressing the polyepitope; test: Melanoma polyepitopic pCMV-B10 DNA immunization of HHD mice, CTL assay; format: in vivo; settings: pCMV-B10 DNA with 10 melanoma epitopes, FIG. 1C and D
# [12] = test system: HHD-transfected RMAS cells loaded with relevant peptide; test: CTL response of HHD mice immunized with lipopeptides; format: in vivo; settings: lipopeptide of the epitope; individual mice 1-6
# [13] = test system: HHD-transfected RMAS cells loaded with relevant peptide; test: CTL response of HHD mice immunized with peptide-loaded dendritic cells; format: in vivo; settings: for lysis in % (highest specific lysis): individual mice 1-6, usually 60/1 E/T; for lysis in % after a second in vitro restimulation: second restimulation with 10% TCGF, individual mice 1-6
# [14] = wild-type HIV 1 peptides, reference I9V, T2 cells
Sequence,classification as immunogen [1],Responder/tested mice ([1]; without helper peptide),Responder/tested mice [2],"DC (half-life of stabilized peptide-HLA-A2.1 complexes, DC 50) (HLA-A2.1 molecules [4]) [h]",RA (relative affinity) (HLA-A2.1 molecules [5]; [14]),lysis in % (highest specific lysis) [6],R/T (responder versus tested mice) [7],lysis in % (highest specific lysis) [8],R/T (responder versus tested mice) [9],hierarchy of CTL inducers [10],R/T (responder versus tested mice) [10],lysis in % (highest specific lysis) [12],lysis in % (highest specific lysis) [13],lysis in % after a second in vitro restimulation [13],further results
"ALVEICTEM [A9M, HIV 1 POL (188-196) CD8 epitopic peptide]",intermediate,3/6,1/6,,,,,,,,,,,,Maximal specific lysis (%) ([2]; each responder mouse): 31%; cross-recognition of natural HIV 1 variants (in words) [3]: cross-lysed significantly all main natural variants
EMMTACQGV [E9V],inefficient,0/6,0/6,< 2,,,,,,,,,,,
"KLTPLCVSL [K9L, HIV 1 ENV gp120 (120-128) CD8 epitopic peptide]",intermediate,3/6,4/6,> 6,1.35,,,,,,,,,,cross-recognition of natural HIV 1 variants (in words) [3]: lack of cross-recognition
LLDTGADDTV [L10V],intermediate,1/6,0/6,< 2,10,,,,,,,,,,"Maximum specific lysis (%) ([1]; without helper peptide, each responder mouse): 48%"
VLDVGDAYFSV [V11V],intermediate,3/6,2/6,2,4.5,,,,,,,,,,
"VLPDVFIRC [NA17-A.nt38, NA17-A nt38-64 epitopic peptide]",,,,,,35% and 43% and 47% and 44% and 40% and 54%,0/6,55% and 39% and 50% and 60% and 59% and 61%,5/6,intermediate,4/7,0% (2×) and 12% and 68% and 65% and 47%,0% (2×) and 3% (2×) and 5% and 6%,(6) %; also recorded: (5) %; also recorded: (24) %; also recorded: (9) %; also recorded: (7) %; also recorded: (2) %,CTL responses (in words) [6]: strong CTL responses; CTL responses (in words) [8]: strong CTL responses; CTL response with helper peptide (in words) [9]: stronger responses in a larger proportion of mice; RA (relative affinity) (HLA-A2.1 molecules [5]): 1.52; CTL response against the epitope after melanoma polyepitope DNA immunization (in words) [11]: Strong responses
YLEPGPVTA [gp100.280],,,,,,0% (2×) and 8% and 36% and 21% and 9%,0/6,8% (2×) and 3% and 1% and 4% and 18%,2/8,weak,3/16,0% (2×) and 8% (2×) and 40% and 21%,0%,(1) %; also recorded: (0) %,CTL response against the epitope after melanoma polyepitope DNA immunization (in words) [11]: did not elicit CTL responses; also recorded: No specific lysis
"YLSGANLNL [CEA.571, CEA 571-579 epitopic peptide]",,,,,,19% and 66% and 40% and 65% and 62% and 55%,0/6,56% and 59% and 51% and 58% and 46% and 62%,3/6,strong,6/6,0% (2×) and 8% (2×) and 34% and 3%,4% (2×) and 1% (2×) and 0% and 2%,(1) %; also recorded: (5) %; also recorded: (2) %; also recorded: (0) %; also recorded: (22) %,CTL responses (in words) [6]: strong CTL responses; CTL responses (in words) [8]: strong CTL responses; CTL response with helper peptide (in words) [9]: less immunogenic
YMNGTMSOV [Tyrosinase.368-N],,,,,,6% and 12% and 16% and 13% and 11% and 38%,0/6,0% and 61% and 58% and 39% and 29% and 17%,5/12,intermediate,4/15,51% and 20% and 0% and 5% and 11% and 12%,0% (4×) and 8% and 15%,(3) %; also recorded: (17) %; also recorded: (30) %; also recorded: (80) %; also recorded: (61) %; also recorded: (1) %,RA (relative affinity) (HLA-A2.1 molecules [5]): 2.2
